According to patent US5521197A, “3-<1-alkylenearyl>-4-<1,2,3,6-tetrahydropyridinyl>-and 3-<1-alkylenearyl>-4-piperidinyl-1h-indoles: new 5-HT1F agonists” (Eli Lilly and Company, priority 1994, dated 1996):
Where a name gives a salt, the structure may show the parent alone. Read-outs that look alike come from different tables or passages of the source.

Columns and labels:
[1] = system: protein extravasation in the dura; assay: Inhibition of neuronal protein extravasation (trigeminal ganglion stimulation, Evans Blue in dura); type: in vivo, Harlan Sprague-Dawley rats or guinea pigs
5-HT1F receptor = molecular target: T1, 5-HT1F receptor (Homo sapiens, UniProt P30939); assay: Radioligand ([3H]5-HT) binding to the 5-HT1F receptor subtype; set-up: expressed in transfected cells; host or cells: Ltk- cells (membranes)
T1 sequence (P30939 1-366): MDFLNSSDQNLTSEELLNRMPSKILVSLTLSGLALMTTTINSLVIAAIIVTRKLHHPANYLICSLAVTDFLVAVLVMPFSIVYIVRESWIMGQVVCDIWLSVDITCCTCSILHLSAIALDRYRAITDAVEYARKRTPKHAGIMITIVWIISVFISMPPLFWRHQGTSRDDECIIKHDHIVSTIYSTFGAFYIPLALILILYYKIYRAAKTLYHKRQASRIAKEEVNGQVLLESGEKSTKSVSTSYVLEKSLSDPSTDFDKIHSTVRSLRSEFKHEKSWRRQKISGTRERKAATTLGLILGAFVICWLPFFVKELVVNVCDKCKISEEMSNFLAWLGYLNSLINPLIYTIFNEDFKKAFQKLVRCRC
Method: The cells were washed twice with phosphate-buffered saline, scraped from the culture dishes into 5 mL of ice-cold phosphate-buffered saline, and centrifuged at 200×g for 5 minutes at 4° C. The pellet was resuspended in 2.5 mL of ice-cold Tris buffer (20 mM Tris HCl, pH=7.4 at 23° C., 5 mM EDTA) and homogenized with a Wheaton tissue grinder. The lysate was subsequently centrifuged at 200×g for 5 minutes at 4° C. to pellet large fragments which were discarded. The supernatant was collected and centrifuged at 40,000×g for 20 minutes at 4° C. The pellet resulting from this centrifugation was washed once in ice-cold Tris wash buffer and resuspended in a final buffer containing 50 mM Tris HCl and 0.5 mM EDTA, pH=7.4 at 23° C. Membrane preparations were kept on ice and utilized within two hours for the radioligand binding assays.
Saturation studies were conducted using [^3 H]5-HT at 12 different concentrations ranging from 0.5 nM to 100 nM. […] The binding profile of drugs in competition experiments was accomplished using 10-12 concentrations of compound. […] Nonspecific binding was defined in the presence of 10 μM 5-HT. Binding was initiated by the addition of 50 μL membrane homogenates (10-20 μg). The reaction was terminated by rapid filtration through presoaked (0.5% polyethyleneimine) filters using 48R Cell Brandel Harvester (Gaithersburg, Md.). Subsequently, filters were washed for 5 seconds with ice cold buffer (50 mM Tris HCl, pH=7.4 at 4° C.), dried and placed into vials containing 2.5 mL Readi-Safe (Beckman, Fullerton, Calif.) and radioactivity was measured using a Beckman LS 5000TA liquid scintillation counter. […] Binding data was analyzed by computer-assisted nonlinear regression analysis (Accufit and Accucomp, Lunden Software, Chagrin Falls, Ohio). […] All experiments were performed in triplicate. […]

[2] = system: cephalic vascular smooth muscle; conditions: cited from earlier work
migraine = conditions: in vivo; cited from earlier work
neurogenic inflammation = conditions: in vivo; cited from earlier work
[3] = iv, read-out: Inhibition of Protein Extravasation, i.v. ID50
[4] = Table I, [3H]5-HT displacement, transfected Ltk- cell membranes, 37° C., read-out: 5-HT1F BINDING Ki

CNS(=O)(=O)Cc1ccc2[nH]cc(CCN(C)C)c2c1 [Compound I, 3-[2-(dimethylamino)ethyl]-N-methyl-1H-indole-5-methanesulfonamide butane-1,4-dioate (1:1)]
ED50 [1, 3]: 2.6e-05 µmol/kg

CN(C)C1CCc2[nH]c3ccc(O)cc3c2C1 (centres unmarked) [Compound V, 6-hydroxy-3-dimethylamino-1,2,3,4-tetrahydrocarbazole]
ED50 [1, 3]: 8.7e-06 µmol/kg

CCN(CC)C1CCc2cccc(Cl)c2C1 (centres unmarked) [Compound IV, 8-chloro-2-diethylamino-1,2,3,4-tetrahydronaphthalene hydrochloride]
ED50 [1, 3]: 0.00012 µmol/kg

COc1ccccc1CCN1CCC(c2c[nH]c3ccccc23)CC1 [Example 11, 3-<1-<2-<2-methoxyphenyl>ethyl>-4-piperidinyl>-1H -indole hydrochloride]
Ki (5-HT1F receptor; [4]): 34 nM

c1ccc(CCN2CCC(c3c[nH]c4ccccc34)CC2)cc1 [Example 26, 3-<1-<2-phenylethyl>-4-piperidinyl>-1H-indole]
Ki (5-HT1F receptor; [4]): 52.1 nM

COc1cccc(CCN2CCC(c3c[nH]c4ccccc34)CC2)c1 [Example 12, 3-<1-<2-<3-methoxyphenyl>ethyl>-4-piperidinyl>-1H-indole hydrochloride]
Ki (5-HT1F receptor; [4]): 21.1 nM

CNS(=O)(=O)Cc1ccc2[nH]cc(CCN(C)C)c2c1 [sumatriptan]
contraction of cephalic vascular smooth muscle [2]: contract cephalic vascular smooth muscle | effectiveness in the treatment of migraine (migraine): effective in the treatment of migraine | blockade of neurogenic inflammation (neurogenic inflammation): blocked

Cn1cc(CCN2CCC(c3c[nH]c4ccc(F)cc34)CC2)cn1 [Compound II, 5-fluoro-3-<1-<2-<1-methyl-1H-pyrazol-4-yl>ethyl>-4-piperidinyl>-1H-indolehydrochloride]
ED50 ([1]; iv; read-out: Inhibition of Protein Extravasation, i.v. ID50): 8.6e-07 µmol/kg

c1ccc(CCCN2CCC(c3c[nH]c4ccccc34)CC2)cc1 [Example 48, 3-<1-<3-phenylpropyl>-4-piperidinyl>-1H-indole hydrochloride]
inhibition at 1 µM (5-HT1F receptor; Table I, at 1000 nM, read-out: 5-HT1F BINDING, % displacement at 1000 nM): 50%

C1=C(c2c[nH]c3ccccc23)CCN(CCc2ccccc2)C1 [Example 19, 3-<1-<2-phenylethyl>-4-<1,2,3,6-tetrahydropyridinyl>>-1H-indole]
Ki (5-HT1F receptor): 81.1 nM

Oc1ccc2[nH]cc(C3CCNCC3)c2c1 [Compound III, 5-hydroxy-3-(4-piperidinyl)-1H-indole oxalate]
ED50 [1, 3]: 8.9e-06 µmol/kg

C1=C(c2c[nH]c3ccccc23)CCN(CCCCc2ccccc2)C1 [Example 43, 3-<1-<4-phenylbutyl>-4-<1,2,3,6-tetrahydropyridinyl>>-1H-indolehydrochloride]
Ki (5-HT1F receptor; [4]): 547 nM

Clc1ccc2[nH]cc(C3=CCN(CCc4ccccc4)CC3)c2c1 [Example 20, 5-chloro-3-<1-<2-phenylethyl>-4-<1,2,3,6-tetrahydropyridinyl>>-1H-indolehydrochloride]
Ki (5-HT1F receptor): 38.8 nM

C1=C(c2c[nH]c3ccccc23)CCN(CCOc2ccccc2)C1 [Example 37, 3-<1-<2-phenoxyethyl>-4-<1,2,3,6-tetrahydropyridinyl>>-1H-indolehydrochloride]
Ki (5-HT1F receptor; [4]): 413 nM

COc1ccc2[nH]cc(C3CCN(CCc4ccc(F)cc4)CC3)c2c1 [Example 4, 5-methoxy-3-<1-<2-<4-fluorophenyl>ethyl>-4-piperidinyl>-1H-indolehydrochloride]
Ki (5-HT1F receptor; [4]): 35.8 nM
